Results reported in US20190365818A1, “GENETICALLY-TAGGED STEM CELL LINES AND METHODS OF USE” (ALLEN INSTITUTE, priority 2017, published 2019).
Entries after “also recorded” stand apart in the source; their conditions may differ.

Experiments:
[1] = system: Golgi; test: Fluorescence quantification of 3D images: drug-induced Golgi reorganization; type: cell-based, human; details: GFP channel intensity summed over z-stack, 30-minute intervals, vs DMSO
Description: (§1) The pipeline was prototyped using a small suite of well-characterized compounds that include brefeldin A, paclitaxel, rapamycin, wortmannin and staurosporine (FIG. 26A). Low-resolution imaging (24× magnification) was used to test a matrix of concentrations and time points for each compound of interest to establish an initial set of conditions for each perturbation. hiPSC colonies were monitored for morphologic changes using transmitted light (FIG. 26B) and an endogenously GFP-tagged structure, such as microtubules (FIG. 26C). After establishing an end point response for several compounds, high-resolution (120× magnification) imaging of multiple cell lines was performed under standardized perturbation parameters, in the presence of dyes to label the nucleus and cell membrane for reference purposes (FIG. 27). […] Cells were treated with the indicated perturbation agent at a pre-selected concentration and time point established in phase I.
(§2) Fluorescence quantification of the 3D images were used to analyze drug-induced Golgi reorganization, cytoskeleton reorganization, and cell junction reorganization. To quantify the relative abundance of each structure of interest (e.g. Golgi as presented above), the pixel intensities of the GFP channel (488 nm) were summed across the entire z-stack. […]

[2] = system: microtubules; test: Image-based drug perturbation of GFP-tagged hiPSC lines: microtubules; type: cell-based, human
Description: as §1, §2

[3] = system: ER; test: Image-based drug perturbation of GFP-tagged hiPSC lines: ER; type: cell-based, human; details: hiPS cells undergoing mitosis
Description: as §1

[4] = system: actin; test: Image-based drug perturbation of GFP-tagged hiPSC lines: actin; type: cell-based, human
Description: as §1, §2

[5] = system: cell junctions; test: Image-based drug perturbation of GFP-tagged hiPSC lines: cell junctions; design: species or system human
Description: as §1

[6] = system: hiPSC colonies; test: Image-based drug perturbation of hiPSC colonies: colony and cell morphology; design: species or system human
Description: as §1

[7] = system: desmosomes; test: Image-based drug perturbation of GFP-tagged hiPSC lines: desmosomes (3D object count); type: cell-based, human
Description: (§3) The pipeline was prototyped using a small suite of well-characterized compounds that include brefeldin A, paclitaxel, rapamycin, wortmannin and staurosporine (FIG. 26A). Low-resolution imaging (24× magnification) was used to test a matrix of concentrations and time points for each compound of interest to establish an initial set of conditions for each perturbation. hiPSC colonies were monitored for morphologic changes using transmitted light (FIG. 26B) and an endogenously GFP-tagged structure, such as microtubules (FIG. 26C). After establishing an end point response for several compounds, high-resolution (120× magnification) imaging of multiple cell lines was performed under standardized perturbation parameters, in the presence of dyes to label the nucleus and cell membrane for reference purposes (FIG. 27). […]
(§4) For drug-induced effects on cell junction reorganization, representative maximum intensity projections of a z-stack along the x-z axis are shown in FIG. 30. From these projections, the mean pixel intensity for the GFP channel along the x-axis, from the top of the image to the bottom, was measured to generate an intensity profile plot. […] To analyze the change in desmosome number, the number of 3D objects in a z-stack were counted using the 3D Object Counter tool in Fiji. […] Data were analyzed by Student's t-test (** p<0.01).

[8] = system: myosin; test: Relative fluorescence quantification and z-axis intensity profiling: myosin; type: cell-based, human; details: for myosin organization through the thickness of the cell: z-axis intensity profiling
Description: as §1
Fluorescence quantification of the 3D images were used to analyze drug-induced Golgi reorganization, cytoskeleton reorganization, and cell junction reorganization. To quantify the relative abundance of each structure of interest (e.g. Golgi as presented above), the pixel intensities of the GFP channel (488 nm) were summed across the entire z-stack. For each experiment, the same threshold was used to exclude background intensity noise across the control (DMSO) and experimental (perturbation agent) groups. The data were plotted by averaging z-stack data from a time interval (30-minute) and compared to the control DMSO data. Dunnett's multiple comparison test was used to perform one-way ANOVA between the different time intervals against the control group.

[9] = system: ZO-1; test: Z-axis intensity profiling of 3D images: cell junction reorganization (ZO-1); type: cell-based, human; details: x-z maximum intensity projection, intensity profile plot
Description: as §3, §4

[10] = 3D fluorescence quantification vs DMSO

C[C@H]1CCC/C=C/[C@@H]2C[C@H](O)C[C@H]2[C@H](O)/C=C/C(=O)O1 [Brefeldin A, brefeldin A]
effect on Golgi organization [1]: induced dissociation of the golgi within 30 minutes

CC(=O)O[C@H]1C(=O)[C@@]2(C)[C@H]([C@H](OC(=O)c3ccccc3)[C@]3(O)C[C@H](OC(=O)[C@H](O)[C@@H](NC(=O)c4ccccc4)c4ccccc4)C(C)=C1C3(C)C)[C@]1(OC(C)=O)CO[C@@H]1C[C@@H]2O [paclitaxel]
effect on microtubule organization ([2]; GFP-tagged hiPSC, high-resolution (120x) imaging, vs DMSO control): increased microtubule bundle thickness and altered the shape and position of the mitotic spindle; also recorded: stabilized the microtubules | microtubule relative localized fluorescence intensity ([2]; over time, vs DMSO): trend of increased relative localized fluorescence intensity over time | effect on organization of the ER [3]: induced aberrant reorganization of the ER | effect on bulk organization of the actin bundles ([4]; GFP-tagged hiPSC): minimal effects | effect on bulk organization of cell junctions [5]: minimal effects

CN[C@@H]1C[C@H]2O[C@@](C)([C@@H]1OC)n1c3ccccc3c3c4c(c5c6ccccc6n2c5c31)C(=O)NC4 [staurosporine]
effect on colony and cell morphology [6]: major effects on colony and cell morphology, inducing rearrangements in cell packing and shape | number of DSP-positive plaques ([7]; 3D Object Counter, Student's t-test p<0.01): increased in number | effect on desmosome localization ([7]; GFP-tagged hiPSC): induced re-localization of desmosomes; also recorded: desmosomes relocalized throughout the cell | myosin organization through the thickness of the cell [8]: induced reorganization of the myosin | distribution of ZO-1 along the z-axis [9]: redistribution of ZO-1 along the z-axis

(S)-nitro blebbistatin
relative actin protein abundance and organization [4, 10]: reorganization and relative decrease | effect on Golgi organization [1]: induced fragmentation of the organelle | relative myosin protein abundance and organization [8, 10]: reorganization and relative decrease | myosin organization through the thickness of the cell [8]: induced reorganization of the myosin | distribution of ZO-1 along the z-axis [9]: redistribution of ZO-1 along the z-axis
